Consider 1 molecule from ChEMBL document CHEMBL1201862, “PubChem BioAssay data set” (2004).

In general, EC50 refers to the concentration at which the effect is half-maximal. A word on the IC50: it is the point on the concentration scale where inhibition reaches its midpoint. The term AC50 denotes the midpoint of the concentration-response curve, whichever way the signal moves.

The structures appear in SMILES notation. The source made the active and inactive calls. Rule as the data show it, for most assays here: actives have a measured EC50 and inactives only a lower limit.

Assay [1] in a line: NIH-3T3 fibroblast cytotoxicity, dose response, cytotoxicity control, cell-based, fluorescence, Alamar Blue, secondary assay (AID 2327).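 Also: NIH-3T3 mouse fibroblasts cultured with fluconazole at 8 µg/mL.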 In kind it is functional.
Assay [2] concerns HEK293. The assay is described as follows: inhibition of NOD1-driven NF-kB reporter – cell-based, luminescence, uHTS, primary screen (AID 1578). In kind it is functional. The settings on record: Homo sapiens.
Assay [3] deals with Streptococcus sp. 'group A'. The assay can be described thus: Streptococcus pyogenes SK(-)GAS viability under kanamycin – luminescence, BacTiterGlo, confirmation, counter-screen for streptokinase expression inhibitor project, dose response (AID 1900). In kind it is functional, organism-based.
Assay [4] deals with BJ. The assay can be described thus: BJ-TERT fibroblast viability loss – cell-based, RAS-independent, luminescence, dose response (AID 1933). In kind it is functional. The settings on record: Homo sapiens.
Assay [5] concerns HEK293. The assay is described as follows: cells. In kind it is functional, cell-based. The settings on record: Homo sapiens.
Assay [6] deals with BJ. The assay can be described thus: cells. In kind it is functional, cell-based. The following applies: Homo sapiens.
Assay [7] in a line: fluconazole-exposed Candida albicans growth modulators – fluorescence, retest, confirmation (AID 2467). In kind it is functional, cell-based.
The test system of assay [8] is HEK293. The assay is described as follows: cells. Type of assay: functional, cell-based. The settings on record: Homo sapiens. The source holds these as a separate data set.
In assay [9] the target is Nucleotide-binding oligomerization domain-containing protein 2 (Homo sapiens, UniProt Q9HC29). The assay is described as follows: inhibition of NOD2-driven NF-kB reporter – cell-based, luminescence, uHTS, HEK293 (AID 1566). Type of assay: functional.
Assay [10] concerns HEK293. The assay can be described thus: NOD2 signaling inhibitors in MDP-stimulated cells, cell-based, uHTS, luminescence (AID 2001). In kind it is functional. The settings on record: Homo sapiens.
In assay [11] the test system is HEK293. The assay is described as follows: cells. In kind it is functional, cell-based. The following applies: Homo sapiens. This is another data set of the same source.
The target of assay [12] is T1, Serine/threonine-protein phosphatase (Candida dubliniensis (strain CD36 / CBS 7987 / NCPF 3949 / NRRLY-17841) (Yeast), UniProt B9W6M3).
T1 sequence (B9W6M3 whole entry): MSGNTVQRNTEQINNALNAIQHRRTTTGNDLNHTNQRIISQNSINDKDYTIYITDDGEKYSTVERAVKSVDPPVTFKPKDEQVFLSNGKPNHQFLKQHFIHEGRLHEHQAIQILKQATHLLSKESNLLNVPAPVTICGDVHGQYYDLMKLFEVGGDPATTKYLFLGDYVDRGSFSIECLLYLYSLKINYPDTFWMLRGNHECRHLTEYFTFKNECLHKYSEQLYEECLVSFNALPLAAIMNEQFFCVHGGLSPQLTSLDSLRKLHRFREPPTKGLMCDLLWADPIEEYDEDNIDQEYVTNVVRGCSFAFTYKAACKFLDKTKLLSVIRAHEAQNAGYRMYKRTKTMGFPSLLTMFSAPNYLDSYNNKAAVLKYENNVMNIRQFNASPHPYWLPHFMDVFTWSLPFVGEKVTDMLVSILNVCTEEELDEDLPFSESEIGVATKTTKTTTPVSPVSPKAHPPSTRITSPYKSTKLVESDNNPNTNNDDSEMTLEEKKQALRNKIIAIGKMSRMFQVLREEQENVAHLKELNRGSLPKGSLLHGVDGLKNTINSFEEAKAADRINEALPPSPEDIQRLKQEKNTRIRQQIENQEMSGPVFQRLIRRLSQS
The assay can be described thus: blockers of CaCl2-induced CDRE-lacZ signaling – S. cerevisiae, luminescence, secondary, dose response (AID 2388).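 Also: yeast reporter cells carrying a calcineurin-responsive lacZ construct stimulated with calcium chloride; luminescent beta-galactosidase reporter signal in whole cells rather than isolated phosphatase activity; potency for inhibition where a drop in reporter signal means calcineurin blockade.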 Type of assay: functional, cell-based.

Assay [13] deals with T2, Kappa-type opioid receptor (Homo sapiens, UniProt P41145). Type of assay: functional.
The target in a further assay is Beta-galactosidase (Escherichia coli, UniProt Q8VNN2). Type of assay: functional.
Assay [14] has as its system BJ. The assay can be described thus: BJ-TERT-LT-ST fibroblast viability loss – cell-based, RAS-independent, luminescence, dose response (AID 1935).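 Also: BJ fibroblasts immortalized with TERT plus LT and ST oncogenes.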 In kind it is functional. The following applies: Homo sapiens.
Assay [15] deals with T2, Kappa-type opioid receptor. In kind it is functional. This is another data set of the same source.
A short description of assay [16]: DRD fibroblast viability loss – cell-based, non-viral oncogenic, luminescence, dose response (AID 1934). In kind it is functional. The settings on record: Homo sapiens.
The test system of a further assay is Streptococcus. The assay is described as follows: GAS UMAA2166 growth inhibition – luminescence, BacTiterGlo, counter-screen for streptokinase expression inhibitor project, dose response (AID 1915).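 Also: potency for reduction of bacterial viability or growth.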 In kind it is functional, organism-based.
In assay [17] the target is Heat shock protein HSP 90-alpha (Homo sapiens, UniProt P07900). Type of assay: functional, organism-based.
In a further assay the test system is INS1. The assay can be described thus: INS-1E survival protection against cytokine death – cell-based, luminescence, retest, dose response (AID 449756).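 Also: cell death triggered by IL-1 beta plus TNF-alpha plus IFN-gamma mixture; protective hits raise ATP signal compared with cytokine alone wells.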 The settings on record: Rattus norvegicus. Type of assay: functional.
In assay [18] the target is ATP-dependent molecular chaperone HSP82 (Candida albicans (strain WO-1) (Yeast), UniProt C4YTQ8). The assay can be described thus: steroid-induced GRE reporter decrease in yeast – S. cerevisiae, luminescence, Hsp90 inhibitor project, dose response (AID 2400).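 Also: beta-galactosidase luminescence from glucocorticoid response element reporter as proxy for Hsp90 function; inhibitor potency where signal loss means Hsp90 inhibition.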 In kind it is functional, cell-based.
Sequence of ATP-dependent molecular chaperone HSP82 (C4YTQ8 whole entry): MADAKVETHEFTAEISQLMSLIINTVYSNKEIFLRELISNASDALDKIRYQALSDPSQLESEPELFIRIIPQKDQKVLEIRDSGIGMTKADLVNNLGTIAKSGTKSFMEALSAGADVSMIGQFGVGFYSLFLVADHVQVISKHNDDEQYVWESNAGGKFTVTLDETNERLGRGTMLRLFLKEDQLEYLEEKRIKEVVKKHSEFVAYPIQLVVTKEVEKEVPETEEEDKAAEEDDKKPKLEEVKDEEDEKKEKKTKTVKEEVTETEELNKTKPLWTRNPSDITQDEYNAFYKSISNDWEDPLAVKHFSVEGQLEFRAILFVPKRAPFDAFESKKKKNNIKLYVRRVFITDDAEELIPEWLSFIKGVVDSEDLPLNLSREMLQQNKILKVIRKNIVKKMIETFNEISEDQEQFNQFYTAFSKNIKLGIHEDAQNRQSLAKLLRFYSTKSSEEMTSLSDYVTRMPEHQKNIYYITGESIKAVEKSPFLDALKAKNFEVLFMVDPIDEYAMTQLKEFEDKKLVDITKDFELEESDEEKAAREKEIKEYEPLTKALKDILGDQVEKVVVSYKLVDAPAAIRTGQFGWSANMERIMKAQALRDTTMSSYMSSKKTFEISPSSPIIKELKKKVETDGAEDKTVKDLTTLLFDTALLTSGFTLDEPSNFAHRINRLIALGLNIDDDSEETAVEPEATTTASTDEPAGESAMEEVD

T2 sequence (P41145 whole entry): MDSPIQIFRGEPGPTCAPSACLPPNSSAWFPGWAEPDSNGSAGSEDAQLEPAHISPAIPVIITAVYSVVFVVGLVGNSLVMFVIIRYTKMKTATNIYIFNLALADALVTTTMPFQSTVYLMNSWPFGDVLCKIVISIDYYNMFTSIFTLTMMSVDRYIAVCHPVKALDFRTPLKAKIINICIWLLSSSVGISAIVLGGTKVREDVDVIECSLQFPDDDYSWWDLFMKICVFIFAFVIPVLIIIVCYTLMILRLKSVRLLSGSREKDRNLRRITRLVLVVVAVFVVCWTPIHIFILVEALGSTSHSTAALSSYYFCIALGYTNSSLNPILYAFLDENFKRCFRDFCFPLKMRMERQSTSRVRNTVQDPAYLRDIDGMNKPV
Sequence of Nucleotide-binding oligomerization domain-containing protein 2 (Q9HC29 whole entry, the tested form may be a part): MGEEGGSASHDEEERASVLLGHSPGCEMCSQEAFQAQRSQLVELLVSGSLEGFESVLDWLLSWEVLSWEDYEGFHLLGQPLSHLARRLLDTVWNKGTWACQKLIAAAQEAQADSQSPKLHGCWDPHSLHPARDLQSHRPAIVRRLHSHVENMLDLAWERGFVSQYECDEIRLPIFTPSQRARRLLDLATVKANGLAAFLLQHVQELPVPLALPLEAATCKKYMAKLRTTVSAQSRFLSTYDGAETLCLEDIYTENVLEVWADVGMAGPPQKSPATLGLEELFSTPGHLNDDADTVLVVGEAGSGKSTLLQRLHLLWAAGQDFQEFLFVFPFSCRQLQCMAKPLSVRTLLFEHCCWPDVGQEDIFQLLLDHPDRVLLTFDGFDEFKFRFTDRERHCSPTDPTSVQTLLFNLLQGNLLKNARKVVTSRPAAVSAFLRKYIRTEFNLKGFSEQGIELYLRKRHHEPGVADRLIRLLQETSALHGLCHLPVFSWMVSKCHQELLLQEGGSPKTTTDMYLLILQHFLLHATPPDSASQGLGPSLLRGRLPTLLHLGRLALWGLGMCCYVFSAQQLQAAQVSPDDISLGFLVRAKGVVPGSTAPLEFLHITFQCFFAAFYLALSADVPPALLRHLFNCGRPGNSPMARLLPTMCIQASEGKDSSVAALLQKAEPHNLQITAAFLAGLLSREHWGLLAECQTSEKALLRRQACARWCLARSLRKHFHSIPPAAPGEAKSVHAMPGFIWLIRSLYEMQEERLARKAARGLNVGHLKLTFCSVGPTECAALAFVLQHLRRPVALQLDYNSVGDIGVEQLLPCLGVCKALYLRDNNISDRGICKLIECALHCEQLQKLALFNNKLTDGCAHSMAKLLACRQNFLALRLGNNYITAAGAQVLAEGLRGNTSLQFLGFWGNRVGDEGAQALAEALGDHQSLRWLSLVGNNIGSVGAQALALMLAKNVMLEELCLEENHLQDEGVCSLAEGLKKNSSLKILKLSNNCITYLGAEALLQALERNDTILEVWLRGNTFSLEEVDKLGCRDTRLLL
Sequence of Beta-galactosidase (Q8VNN2 whole entry): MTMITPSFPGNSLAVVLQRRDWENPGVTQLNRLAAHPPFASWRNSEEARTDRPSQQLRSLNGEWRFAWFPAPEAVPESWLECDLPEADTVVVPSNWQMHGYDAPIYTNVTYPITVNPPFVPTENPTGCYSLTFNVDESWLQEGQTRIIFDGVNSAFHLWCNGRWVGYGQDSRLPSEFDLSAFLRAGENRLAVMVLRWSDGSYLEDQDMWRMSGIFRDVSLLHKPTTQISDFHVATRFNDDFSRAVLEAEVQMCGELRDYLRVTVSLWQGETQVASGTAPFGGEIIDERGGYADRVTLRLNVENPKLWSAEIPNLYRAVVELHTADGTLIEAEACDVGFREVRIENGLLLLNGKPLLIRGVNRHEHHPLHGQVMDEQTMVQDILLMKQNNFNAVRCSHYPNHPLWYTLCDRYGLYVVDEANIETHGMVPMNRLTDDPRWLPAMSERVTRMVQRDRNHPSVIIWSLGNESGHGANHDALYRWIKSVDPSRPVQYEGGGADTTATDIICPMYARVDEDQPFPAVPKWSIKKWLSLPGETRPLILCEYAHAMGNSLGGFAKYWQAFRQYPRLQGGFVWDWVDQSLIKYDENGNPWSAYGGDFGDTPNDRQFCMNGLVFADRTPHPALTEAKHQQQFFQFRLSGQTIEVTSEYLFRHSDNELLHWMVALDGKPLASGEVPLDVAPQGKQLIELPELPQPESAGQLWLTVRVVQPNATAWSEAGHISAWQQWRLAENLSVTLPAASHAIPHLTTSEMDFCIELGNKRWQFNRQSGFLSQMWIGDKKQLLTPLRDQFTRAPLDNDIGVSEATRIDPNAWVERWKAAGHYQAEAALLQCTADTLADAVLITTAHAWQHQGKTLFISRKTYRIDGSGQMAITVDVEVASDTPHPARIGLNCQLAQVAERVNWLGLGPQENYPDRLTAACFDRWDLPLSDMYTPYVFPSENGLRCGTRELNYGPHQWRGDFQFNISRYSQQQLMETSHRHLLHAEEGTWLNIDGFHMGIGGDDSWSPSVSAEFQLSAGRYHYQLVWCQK

With `COc1cccc(N=Nc2ccc3cccnc3c2O)c1`, the EC50 was 87.8 µM (active) in assay [1]; > 20 µM (inactive) in the assay on HEK293 [2]; 0.068 µM (active) in [3]; 6.69 µM (inconclusive) in the assay with BJ [4]; 16.9 µM (inconclusive) with BJ [6]; 0.619 µM (active) in [7]. The EC50 is > 20 µM (inactive) in assay [9]; > 180 µM (inactive) in assay [12]; 22 µM (active) at Beta-galactosidase; 3.73 µM (inconclusive) in the assay on BJ [14]; 10.5 µM (active) in assay [16]; 2.53 µM (active) in the assay on Streptococcus. Moreover, the EC50 in assay [18] is 4.9 µM (active). For the same molecule, the IC50 with HEK293 [5] was 5.21 µM (active); in the assay with HEK293 [8], > 20 µM (inactive); in the assay on HEK293 [10] it was 3.15 µM (inactive); in the assay on HEK293 [11] it was > 20 µM (inactive); in assay [13] it was 5.92 µM (active); in assay [15], more than 32 µM. Further, the AC50 was 5.71 µM (active) in assay [17] and 2.26 µM (active) in the assay with INS1.
